Measurements reported in PubChem BioAssay (NCI).
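Results reflect a 48-hour exposure of cells in 96-well plates to compound at five concentrations. At the GI50, growth is halved. TGI: concentration producing complete growth inhibition.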

Key:
Experiment in all cases: growth of human tumour cells (NCI), 48 h
MDA-MB-468 breast = system: MDA-MB-468 breast
786-0 renal = system: 786-0 renal
A498 renal = system: A498 renal
A549 NSCLC = system: A549 NSCLC
ACHN renal = system: ACHN renal
BT-549 breast = system: BT-549 breast
CAKI-1 renal = system: CAKI-1 renal
CCRF-CEM leukemia = system: CCRF-CEM leukemia
COLO 205 colon = system: COLO 205 colon
DU-145 prostate = system: DU-145 prostate
EKVX NSCLC = system: EKVX NSCLC
HCC-2998 colon = system: HCC-2998 colon
HCT-116 colon = system: HCT-116 colon
HCT-15 colon = system: HCT-15 colon
HL-60(TB) leukemia = system: HL-60(TB) leukemia
HOP-62 NSCLC = system: HOP-62 NSCLC
HOP-92 NSCLC = system: HOP-92 NSCLC
HS 578T breast = system: HS 578T breast
HT29 colon = system: HT29 colon
IGROV1 ovarian = system: IGROV1 ovarian
K-562 leukemia = system: K-562 leukemia
KM12 colon = system: KM12 colon
LOX IMVI melanoma = system: LOX IMVI melanoma
M14 melanoma = system: M14 melanoma
MALME-3M melanoma = system: MALME-3M melanoma
MCF7 breast = system: MCF7 breast
MDA-MB-231 breast = system: MDA-MB-231 breast
MDA-MB-435 = system: MDA-MB-435
MOLT-4 leukemia = system: MOLT-4 leukemia
NCI-H226 lung = system: NCI-H226 lung
NCI-H23 lung = system: NCI-H23 lung
NCI-H460 lung = system: NCI-H460 lung
NCI-H522 lung = system: NCI-H522 lung
OVCAR-3 ovarian = system: OVCAR-3 ovarian
OVCAR-4 ovarian = system: OVCAR-4 ovarian
OVCAR-5 ovarian = system: OVCAR-5 ovarian
OVCAR-8 ovarian = system: OVCAR-8 ovarian
PC-3 prostate = system: PC-3 prostate
RPMI-8226 leukemia = system: RPMI-8226 leukemia
RXF 393 renal = system: RXF 393 renal
SF-268 CNS = system: SF-268 CNS
SF-295 CNS = system: SF-295 CNS
SF-539 CNS = system: SF-539 CNS
SK-MEL-2 melanoma = system: SK-MEL-2 melanoma
SK-MEL-28 melanoma = system: SK-MEL-28 melanoma
SK-MEL-5 melanoma = system: SK-MEL-5 melanoma
SK-OV-3 ovarian = system: SK-OV-3 ovarian
SN12C renal = system: SN12C renal
SNB-19 CNS = system: SNB-19 CNS
SNB-75 CNS = system: SNB-75 CNS
SR leukemia = system: SR leukemia
SW-620 colon = system: SW-620 colon
T-47D breast = system: T-47D breast
TK-10 renal = system: TK-10 renal
U251 CNS = system: U251 CNS
UACC-257 melanoma = system: UACC-257 melanoma
UACC-62 melanoma = system: UACC-62 melanoma
UO-31 renal = system: UO-31 renal

CCCCCCCCCCCCCCCc1ccc(C(=O)C[n+]2ccccc2)cc1
GI50 (MDA-MB-468 breast): 1.55 µM
TGI (MDA-MB-468 breast): 2.89 µM

Cc1ccc2c(c1)/C(=N\N=C/c1cn(C(C)C)c3ccccc13)C(=O)N2
GI50 (MDA-MB-468 breast): 1.84 µM
TGI (MDA-MB-468 breast): > 100 µM

c1ccc(COc2ccc(Nc3ncnc4ccc(-c5ccco5)cc34)cc2)cc1
GI50 (MDA-MB-468 breast): 0.48 µM
TGI (MDA-MB-468 breast): 5.32 µM

O=[N+]([O-])c1ccc([I+]c2ccccc2)cc1
GI50 (MDA-MB-468 breast): 1.25 µM
TGI (MDA-MB-468 breast): 4.13 µM

COc1cccc(C2C3=C(COC3=O)N(CCO)c3cc4c(cc32)CCC4)c1 (stereo not given)
GI50 (MDA-MB-468 breast): 0.0216 µM
TGI (MDA-MB-468 breast): 0.177 µM

C#CCSc1nnnn1-c1ccc(Br)c(C)c1
GI50 (MDA-MB-468 breast): 21.2 µM
TGI (MDA-MB-468 breast): 79.7 µM

C=C(CNCCc1ccc(O)cc1)[C@@H]1CC[C@]2(CO)CC[C@]3(C)[C@H](CC[C@@H]4[C@@]5(C)CCC(NCCO)C(C)(C)[C@@H]5CC[C@]43C)[C@@H]12 (stereo not given in full)
GI50 (MDA-MB-468 breast): 1.26 µM
TGI (MDA-MB-468 breast): 2.92 µM

CCN(CC)c1ccc(/C=C/C2=[N+](C)c3ccccc3C2(C)C)cc1
GI50 (MDA-MB-468 breast): 0.175 µM
TGI (MDA-MB-468 breast): 5.88 µM

C[C@@H](Oc1cc(-n2cnc3ccc(OCC4CCN(C)CC4)cc32)sc1C(N)=O)c1ccccc1C(F)(F)F
GI50 (MDA-MB-468 breast): 0.0442 µM
TGI (MDA-MB-468 breast): 0.192 µM

c1ccc(CNc2nc(Nc3ccc(-c4nc5ccccc5[nH]4)cc3)c3cn[nH]c3n2)cc1
GI50 (MDA-MB-468 breast): 2.05 µM
TGI (MDA-MB-468 breast): 4.81 µM

CC1OC(OC2C(OC3CCC4(C)C(CCC5(C)C4CC=C4C6CC(C)(C)CCC6(CO)C(O)CC45C)C3(C)C)OC(C(=O)O)C(OC3OC(COC4OC(CO)C(O)C(O)C4O)C(O)C(O)C3O)C2O)C(O)C(O)C1O (stereo not given)
GI50 (MDA-MB-468 breast): 1.85 µM
TGI (MDA-MB-468 breast): 6.81 µM

CCOC(=O)/C(=C/c1c(-c2ccccc2)[nH]c2ccccc12)C(=O)c1ccc(Cl)cc1
GI50 (MDA-MB-468 breast): 4.36 µM
TGI (MDA-MB-468 breast): > 100 µM

O=C1NC(=NC23CC4CC(CC(C4)C2)C3)N/C1=C\c1ccc2ncccc2c1
GI50 (786-0 renal): 8.95 µM
TGI (786-0 renal): 45 µM
GI50 (A498 renal): 1.12 µM
TGI (A498 renal): > 100 µM
GI50 (A549 NSCLC): 4.09 µM
TGI (A549 NSCLC): 18.6 µM
GI50 (ACHN renal): 4.09 µM
TGI (ACHN renal): 26.2 µM
GI50 (BT-549 breast): 4.39 µM
TGI (BT-549 breast): 41.9 µM
GI50 (CAKI-1 renal): 4.15 µM
TGI (CAKI-1 renal): 34.7 µM
GI50 (CCRF-CEM leukemia): 3.22 µM
TGI (CCRF-CEM leukemia): 19.1 µM
GI50 (COLO 205 colon): 5.58 µM
TGI (COLO 205 colon): > 100 µM
GI50 (DU-145 prostate): 6.03 µM
TGI (DU-145 prostate): > 100 µM
GI50 (EKVX NSCLC): 8.33 µM
TGI (EKVX NSCLC): > 100 µM
GI50 (HCC-2998 colon): 7.5 µM
TGI (HCC-2998 colon): > 100 µM
GI50 (HCT-116 colon): 3.41 µM
TGI (HCT-116 colon): 16 µM
GI50 (HCT-15 colon): 2.8 µM
TGI (HCT-15 colon): 22.7 µM
GI50 (HL-60(TB) leukemia): 3.09 µM
TGI (HL-60(TB) leukemia): 27.3 µM
GI50 (HOP-62 NSCLC): 6.56 µM
TGI (HOP-62 NSCLC): > 100 µM
GI50 (HOP-92 NSCLC): 25.9 µM
TGI (HOP-92 NSCLC): > 100 µM
GI50 (HS 578T breast): 2.9 µM
TGI (HS 578T breast): 34.3 µM
GI50 (HT29 colon): 22.8 µM
TGI (HT29 colon): > 100 µM
GI50 (IGROV1 ovarian): 6.43 µM
TGI (IGROV1 ovarian): > 100 µM
GI50 (K-562 leukemia): 3.08 µM
TGI (K-562 leukemia): > 100 µM
GI50 (KM12 colon): 11 µM
TGI (KM12 colon): > 100 µM
GI50 (LOX IMVI melanoma): 7.86 µM
TGI (LOX IMVI melanoma): 29.5 µM
GI50 (M14 melanoma): 6.07 µM
TGI (M14 melanoma): > 100 µM
GI50 (MALME-3M melanoma): 28.6 µM
TGI (MALME-3M melanoma): 94.9 µM
GI50 (MCF7 breast): 6.59 µM
TGI (MCF7 breast): > 100 µM
GI50 (MDA-MB-231 breast): 16.9 µM
TGI (MDA-MB-231 breast): 64.7 µM
GI50 (MDA-MB-435): 5.53 µM
TGI (MDA-MB-435): > 100 µM
GI50 (MDA-MB-468 breast): 2.11 µM
TGI (MDA-MB-468 breast): > 100 µM
GI50 (MOLT-4 leukemia): 3.95 µM
TGI (MOLT-4 leukemia): 26 µM
GI50 (NCI-H226 lung): 4.91 µM
TGI (NCI-H226 lung): 42.1 µM
GI50 (NCI-H23 lung): 4.98 µM
TGI (NCI-H23 lung): > 100 µM
GI50 (NCI-H460 lung): 3.38 µM
TGI (NCI-H460 lung): 15.2 µM
GI50 (NCI-H522 lung): 1.97 µM
TGI (NCI-H522 lung): 30.8 µM
GI50 (OVCAR-3 ovarian): 2.86 µM
TGI (OVCAR-3 ovarian): 29.7 µM
GI50 (OVCAR-4 ovarian): 16.3 µM
TGI (OVCAR-4 ovarian): 80.8 µM
GI50 (OVCAR-5 ovarian): 64.4 µM
TGI (OVCAR-5 ovarian): > 100 µM
GI50 (OVCAR-8 ovarian): 8 µM
TGI (OVCAR-8 ovarian): 33.2 µM
GI50 (PC-3 prostate): 15 µM
TGI (PC-3 prostate): 64.2 µM
GI50 (RPMI-8226 leukemia): 6.82 µM
TGI (RPMI-8226 leukemia): 51.2 µM
GI50 (RXF 393 renal): 3.45 µM
TGI (RXF 393 renal): 28.1 µM
GI50 (SF-268 CNS): 8.17 µM
TGI (SF-268 CNS): > 100 µM
GI50 (SF-295 CNS): 7.56 µM
TGI (SF-295 CNS): 64.9 µM
GI50 (SF-539 CNS): 1.18 µM
TGI (SF-539 CNS): > 100 µM
GI50 (SK-MEL-2 melanoma): 2.35 µM
TGI (SK-MEL-2 melanoma): 10 µM
GI50 (SK-MEL-28 melanoma): 12.5 µM
TGI (SK-MEL-28 melanoma): > 100 µM
GI50 (SK-MEL-5 melanoma): 12.4 µM
TGI (SK-MEL-5 melanoma): > 100 µM
GI50 (SK-OV-3 ovarian): 3.59 µM
TGI (SK-OV-3 ovarian): 35.2 µM
GI50 (SN12C renal): 5.17 µM
TGI (SN12C renal): > 100 µM
GI50 (SNB-19 CNS): 11.7 µM
TGI (SNB-19 CNS): > 100 µM
GI50 (SNB-75 CNS): 0.218 µM
TGI (SNB-75 CNS): 26.6 µM
GI50 (SR leukemia): 2.33 µM
TGI (SR leukemia): 12.3 µM
GI50 (SW-620 colon): 3.95 µM
TGI (SW-620 colon): > 100 µM
GI50 (T-47D breast): 19.4 µM
TGI (T-47D breast): > 100 µM
GI50 (TK-10 renal): 6.87 µM
TGI (TK-10 renal): 60.7 µM
GI50 (U251 CNS): 10.2 µM
TGI (U251 CNS): 26.8 µM
GI50 (UACC-257 melanoma): 66.1 µM
TGI (UACC-257 melanoma): > 100 µM
GI50 (UACC-62 melanoma): 40.2 µM
TGI (UACC-62 melanoma): > 100 µM
GI50 (UO-31 renal): 5.03 µM
TGI (UO-31 renal): > 100 µM
